In PMC3829422, “Conformational Plasticity and Ligand Binding of Bacterial Monoacylglycerol Lipase” (The Journal of Biological Chemistry, 2013):
Numbering of substitutions follows the chain as printed.

Legend:
Assay in all cases: X-ray crystal structure, […] A
Format in all cases: binding
[1] = target: T1, bMGL (Bacillus sp. H-257, UniProt P82597, D196N); details: inactive variant; co-crystallised and soaked; HEPES pH 6.9; active site, chain A only; noncovalent
T1 construct: cap Asn-120-Thr-164; catalytic triad Ser-97, Asp-196, His-226
T1 sequence (P82597 1-250 D196N): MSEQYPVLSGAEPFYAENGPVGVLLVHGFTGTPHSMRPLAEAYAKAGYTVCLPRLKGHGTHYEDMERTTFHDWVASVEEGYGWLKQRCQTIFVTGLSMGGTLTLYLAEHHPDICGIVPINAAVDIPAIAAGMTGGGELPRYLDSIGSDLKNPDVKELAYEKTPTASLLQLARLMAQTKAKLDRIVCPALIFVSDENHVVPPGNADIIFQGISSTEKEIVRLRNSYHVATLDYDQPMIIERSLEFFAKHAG

[2] = target: T2, bMGL (Bacillus sp. H-257, UniProt P82597); details: covalent; Ser-97 phosphonate adduct, 4-nitrophenol released; MES/imidazole pH 6.5
T2 construct: cap Asn-120-Thr-164; catalytic triad Ser-97, Asp-196, His-226
T2 sequence (P82597 1-250): T1 sequence (P82597 1-250 D196N) with N196D

[3] = target: T2, bMGL; details: covalent; Ser-97 phosphonate adduct, 4-nitrophenol released; citric acid pH 5.2
[4] = target: T2, bMGL; details: covalent; Ser-97 phosphonate adduct, 4-nitrophenol released; citric acid pH 5.0

**Q.** For CCCCCCCCCCCC(=O)OCC(O)CO (racemic) [1-LG, 1-lauroylglycerol], which “X-ray crystal structure, 2.8 A” value [1] is on record?
**A.** we only interpreted the electron density of the bMGL(D196N)-1-LG crystal in chain A as substrate

**Q.** For CCCCCCCCCCCCOP(=O)(CCCN=[N+]=[N-])Oc1ccc([N+](=O)[O-])cc1 (stereo not shown) [C12 ligand, dodecyl 4-nitrophenyl (3-azidopropyl)phosphonate], which “X-ray crystal structure, 1.7 A” value [2] is on record?
**A.** both had the C12 ligand covalently bound in the active site

**Q.** With CCCCCCCCCCCCCCOP(=O)(CCCN=[N+]=[N-])Oc1ccc([N+](=O)[O-])cc1 (stereo not shown) [C14 ligand] as the molecule, how does the “X-ray crystal structure, 1.85 A” value [3] read?
**A.** electron densities for the ligands bound to active site residue Ser-97 were observed

**Q.** CCCCCCCCCCCCCCCCOP(=O)(CCCN=[N+]=[N-])Oc1ccc([N+](=O)[O-])cc1 (stereo not shown) [C16 ligand] was tested. Which “X-ray crystal structure, 2.2 A” value [4] did it give?
**A.** electron densities for the ligands bound to active site residue Ser-97 were observed
